# In publication PMC10686834, “Targeting myeloid chemotaxis to reverse prostate cancer therapy resistance” (Nature, 2023):
# Read-outs that look alike come from different tables or passages of the source.
# Key:
# CYP2B6 = test system: CYP2B6; parameters: method as in AZD5069 Investigator Brochure (IB); conditions: human hepatocytes; ref AZD5069 Investigator Brochure (IB); cited from earlier work
# CYP2E1 = test system: CYP2E1; parameters: method as in AZD5069 Investigator Brochure (IB); conditions: at concentrations of up to 100 μmol/L; ref AZD5069 Investigator Brochure (IB); cited from earlier work
# CYP2C19 = test system: CYP2C19; parameters: method as in AZD5069 Investigator Brochure (IB); conditions: at concentrations of up to 100 μmol/L; ref AZD5069 Investigator Brochure (IB); cited from earlier work
# CYP2C8 = test system: CYP2C8; parameters: method as in AZD5069 Investigator Brochure (IB); conditions: ref AZD5069 Investigator Brochure (IB); cited from earlier work
# healthy volunteers = test system: healthy volunteers; parameters: method as in AZD5069 Investigator Brochure (IB); conditions: ref AZD5069 Investigator Brochure (IB), cited from earlier work
# CACO-2 cells = test system: CACO-2 cells; parameters: method as in AZD5069 Investigator Brochure (IB); conditions: at 0.85 μmol/L, ref AZD5069 Investigator Brochure (IB); cited from earlier work
# [1] = test system: AR activity and AR-V7 signatures; assay: RNA profiling (HTG EdgeSeq) of paired FFPE tumour biopsies: AR activity and AR-V7 signatures; assay type: in vivo, human; conditions: paired biopsies with decreased myeloid cell density (seven pairs)
# Procedure: RNA profiling of FFPE tumour biopsies collected before and after starting AZD5069 was carried out by HTG EdgeSeq (HTG Molecular Diagnostics) using the HTG human transcriptome panel containing 19,616 nuclease protection probes (NPPs), including 19,398 gene target-specific 50-nucleotide probes, 100 negative control probes, 92 probes for RNA controls established by the External RNA Control Consortium, 22 probes that measure gDNA and 4 positive control probes. The assay was carried out with a minimum of 11 mm^2 of FFPE tumour micro-dissected sections. The sections were lysed according to the manufacturer’s instructions, and added to a 96-well plate on the HTG EdgeSeq Processor (HTG Molecular Diagnostics) on which a quantitative nuclease protection assay was carried out. The addition of DNA nuclease protection probes (NPPs) was automated and they were allowed to hybridize for 16 hours to the target mRNAs. The excess non-hybridized DNA probes and non-hybridized mRNA were removed by S1 digestion leaving only NPPs hybridized to mRNA. […] After clean-up and quantification by quantitative PCR using the kit KAPA Library Quantification Kit Illumina platforms, the libraries were pooled and sequenced on the NextSeq 500 using a High Throughput 75-cycle v.2.5 kit (Illumina). […] Data were analysed using the HTG EdgeSeq Reveal analysis software. […]
# [2] = parameters: method as in AZD5069 Investigator Brochure (IB); conditions: ref AZD5069 Investigator Brochure (IB), cited from earlier work
# [3] = parameters: method as in AZD5069 Investigator Brochure (IB); conditions: ref AZD5069 Investigator Brochure (IB); cited from earlier work
# CYP2C9 = test system: CYP2C9; parameters: method as in AZD5069 Investigator Brochure (IB); conditions: ref AZD5069 Investigator Brochure (IB); cited from earlier work
# [4] = test system: patients with bronchiectasis; conditions: cited from earlier work
# [5] = parameters: method as in AZD5069 Investigator Brochure (IB); conditions: in vitro and in vivo studies; ref AZD5069 Investigator Brochure (IB); cited from earlier work
# [6] = test system: patients with chronic obstructive pulmonary disease (COPD); conditions: cited from earlier work
# [7] = bronchiectasis study NCT01255592, on AZD5069, ref AZD5069 Investigator Brochure (IB)
smiles,measurement,setting,value
C[C@@H](Oc1cc(NS(=O)(=O)N2CCC2)nc(SCc2cccc(F)c2F)n1)[C@@H](O)CO [AZD5069],induction of CYP2B6 activity,CYP2B6,concentration dependent induction
same,inhibition of CYP2E1,CYP2E1,not an inhibitor
same,inhibition of CYP2C19,CYP2C19,not an inhibitor
same,IC50,CYP2C8,~100 µM
same,adverse effects considered to be related to treatment,healthy volunteers; 202 healthy volunteers,no clinically significant adverse effects
same,doses with a reduction in blood neutrophil counts,healthy volunteers; healthy volunteers,≥ 5.45 mg
same,efflux ratio,CACO-2 cells,57
same,AR activity and AR-V7 mRNA signatures in tumour biopsies,[1],downregulation of AR activity and AR-V7 signatures
same,tmax,[2]; fasting conditions,~ 2 hours
same,initial half-life,[2]; plasma,4 h
same,terminal half-life,[2]; plasma,11 h
same,apparent volume of distribution,[2],~ 53 L
same,food effect,[2],reduces the peak concentration but total exposure (AUC) is unchanged
same,fraction of the drug renally excreted,[2],Less than 10%
same,total plasma clearance,[2],~ 8 L/h
same,systemic exposure versus dose,[2]; single and repeated BD dosing,proportional to the dose
same,phototoxic potential,[3],low risk for phototoxic potential
same,IC50,CYP2C9,~53.8 µM
same,mean reduction in blood neutrophils,"[4]; bronchiectasis study NCT01255592, 80 mg BD, ref AZD5069 Investigator Brochure (IB)",approximately 16%
same,reduction in sputum neutrophils compared with placebo,"[4]; bronchiectasis study NCT01255592, after 4 weeks’ treatment, ref AZD5069 Investigator Brochure (IB)",69%
same,patients reporting adverse events (AEs),[4]; [7],23 of 26
same,patients who withdrew because of AEs,[4]; [7],5
same,infections reported,[4]; in vivo,34.6%
same,genotoxicity,[5],not genotoxic
same,adverse events (AEs),"[6]; 50mg AZD5069, ref (18)",33%
same,"treatment discontinuation for decrease in neutrophils (<1.0 × 10^9/L in two blood samples, 24 hours apart)","[6]; 50mg AZD5069, ref (18)",10%
same,adverse events (AEs),"[6]; 80mg AZD5069, ref (18)",21%
same,"treatment discontinuation for decrease in neutrophils (<1.0 × 10^9/L in two blood samples, 24 hours apart)","[6]; 80mg AZD5069, ref (18)",4%
same,AEs leading to discontinuation of treatment,"[6]; AZD5069 50 mg group, ref (18)",17%
same,patients discontinued from the study due to decreased neutrophil count,"[6]; AZD5069 50 mg group, ref (18)",3
same,AEs leading to discontinuation of treatment,"[6]; AZD5069 80 mg group, ref (18)",7%
same,average decrease of blood neutrophil counts from baseline,"[6]; AZD5069 80 mg group, ref (18)",13-36%
same,patients discontinued from the study due to decreased neutrophil count,"[6]; AZD5069 80 mg group, ref (18)",1
